Laboratory results as given in patent US5939437A, “CCK and gastrin receptor ligands” (James Black Foundation Limited, priority 1994, dated 1999).

Columns and labels:
[1] = molecular target: T1, CCKB (Mus musculus, UniProt P56481); assay: radioligand binding assay at the CCKB (CCK8 [sic]) receptor in mouse cortical membranes; conditions: [125I]-CCK8S 200 pM, 150 min at 21±3° C.; for Ki: read-out: CCKB pKi (converted)
T1 construct: The cortex was dissected, weighed and homogenised in 40 ml ice-cold buffer; from tissue; host or cells: cerebral cortex membranes of male CD1 mice (Charles River)
T1 sequence (P56481 1-453): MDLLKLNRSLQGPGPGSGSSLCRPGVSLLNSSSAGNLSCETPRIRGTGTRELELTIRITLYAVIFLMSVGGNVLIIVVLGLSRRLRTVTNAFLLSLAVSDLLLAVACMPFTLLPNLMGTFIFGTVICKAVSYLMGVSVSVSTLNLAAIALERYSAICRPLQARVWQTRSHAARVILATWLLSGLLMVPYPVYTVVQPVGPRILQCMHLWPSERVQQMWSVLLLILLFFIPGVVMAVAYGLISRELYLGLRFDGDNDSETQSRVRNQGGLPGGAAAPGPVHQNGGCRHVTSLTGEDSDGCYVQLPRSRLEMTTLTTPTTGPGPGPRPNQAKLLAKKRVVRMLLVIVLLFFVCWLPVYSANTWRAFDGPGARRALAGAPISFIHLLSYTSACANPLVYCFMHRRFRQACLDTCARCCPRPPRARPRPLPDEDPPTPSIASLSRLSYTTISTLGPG
Experimental: The compounds of the examples were tested for binding at the CCK8 receptor in mouse cortical membranes by means of a radioligand binding assay. The procedure was as follows: The whole brains from male mice (CD1 22-25 g; Charles River) were removed and placed in ice-cold buffer (pH7.2@21±3° C.) of the following composition (mM); 10 HEPES, 130 NaCl, 4.7 KCl, 5 MgCl2, 1 EDTA and containing 0.25 g.1^-1 bacitracin. The cortex was dissected, weighed and homogenised in 40 ml ice-cold buffer using a Teflon-in-glass homogeniser. The homogenate was centrifuged at 39,800 g for 20 min at 4° C., the supernatant discarded and the pellet resuspended by homogenisation in fresh buffer. The homogenate was recentrifuged (39,800 g; 20 min@4° C.) and the final pellet was resuspended in HEPES buffer to give a tissue concentration of 2 mg.ml^-1 (original wet weight). The membranes ([…]) were incubated for 150 min at 21±3° C. in a final volume of 0.5 ml with HEPES buffer containing [^25 I]-CCK8S (0.05 ml; 200 pM NEN 2200 Ci.mmol^-1) and competing compound. Total and non-specific binding of [^125 I]-CCK8S were defined using 0.05 ml of buffer and 0.05 ml of […] L-365,260, respectively. The assay was terminated by rapid filtration through pre-soaked Whatman GF/B 35 filters using a Brandell Cell harvester. The filters were washed (3×3 ml) with ice-cold 5 mM Tris-HCl (pH7.4@4° C.) and bound radioactivity determined by counting (1 min.) in a gamma-counter.

[2] = molecular target: T2, Gastrin (Rattus norvegicus, UniProt P30553); assay: gastrin antagonist activity in an immature rat stomach assay (pentagastrin-stimulated acid secretion, isolated stomach); conditions: cumulative pentagastrin dose-response curves, 60 min after drug; for Kb: read-out: Gastrin pKB (converted)
T2 construct: The stomach was excised and flushed with ca. 1 ml unbuffered physiological saline solution; from tissue; host or cells: isolated whole stomach of immature rats (33-50 g, ca. 21 days old)
T2 sequence (P30553 1-452): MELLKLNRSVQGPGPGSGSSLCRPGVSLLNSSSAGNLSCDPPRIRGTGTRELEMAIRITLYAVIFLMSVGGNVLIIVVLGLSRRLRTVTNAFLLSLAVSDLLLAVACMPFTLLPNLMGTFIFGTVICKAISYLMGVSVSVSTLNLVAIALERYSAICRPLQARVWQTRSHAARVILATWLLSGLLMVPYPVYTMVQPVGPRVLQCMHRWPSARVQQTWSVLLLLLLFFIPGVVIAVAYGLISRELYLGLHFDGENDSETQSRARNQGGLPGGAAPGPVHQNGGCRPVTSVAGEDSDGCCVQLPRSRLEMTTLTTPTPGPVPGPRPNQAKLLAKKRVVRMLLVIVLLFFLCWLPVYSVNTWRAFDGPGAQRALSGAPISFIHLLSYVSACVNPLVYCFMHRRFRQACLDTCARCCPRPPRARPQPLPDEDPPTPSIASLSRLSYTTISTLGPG
Experimental: The compounds of the examples were also tested for gastrin antagonist activity in an immature rat stomach assay. The procedure was follows:
The oesophagus of immature rats (33-50 g, ca. 21 days old) was ligated at the level of the cardiac sphincter and the duodenal sphincter was cannulated. The stomach was excised and flushed with ca. 1 ml unbuffered physiological saline solution. The fundus was punctured and cannulated. A further 4-5 ml of unbuffered solution was flushed through the stomach to ensure the preparation was not leaking. The stomach was lowered into a jacketed organ bath containing 40 ml of buffered solution containing 3×10^-8 M5methylfurmethide, maintained at 37° and gassed vigorously with 95% O2 /5% CO2. The stomach was continuously perfused at a rate of 1 ml min^-1 with unbuffered solution gassed with 100% O2 with the perfusate passing over an internally referenced pH-electrode fixed 12 cm above the stomach.
After 120 min of stabilisation the drugs were added directly to the serosal solution in the organ bath and after a further 60 min cumulative pentagastrin dose-response curves were started. Changes in acid secretion were monitored and the curves analysed according to Black et. al., Br. J. Pharmacol., 1985, 86, 581.

[3] = molecular target: T3, CCKA (Cavia porcellus, UniProt Q63931); assay: CCKA binding assay (guinea-pig pancreas membranes); conditions: [125I]-CCK8(S) 200 pM, 0.375 μM PD134,308 present, 150 minutes at 21±3° C.; for Ki: read-out: CCKA pKi (converted)
T3 construct: The pancreatata were homogenised in 40 ml ice-cold HEPES buffer; from tissue; host or cells: pancreas membranes of male Dunkin Hartley guinea-pigs
T3 sequence (Q63931 1-430): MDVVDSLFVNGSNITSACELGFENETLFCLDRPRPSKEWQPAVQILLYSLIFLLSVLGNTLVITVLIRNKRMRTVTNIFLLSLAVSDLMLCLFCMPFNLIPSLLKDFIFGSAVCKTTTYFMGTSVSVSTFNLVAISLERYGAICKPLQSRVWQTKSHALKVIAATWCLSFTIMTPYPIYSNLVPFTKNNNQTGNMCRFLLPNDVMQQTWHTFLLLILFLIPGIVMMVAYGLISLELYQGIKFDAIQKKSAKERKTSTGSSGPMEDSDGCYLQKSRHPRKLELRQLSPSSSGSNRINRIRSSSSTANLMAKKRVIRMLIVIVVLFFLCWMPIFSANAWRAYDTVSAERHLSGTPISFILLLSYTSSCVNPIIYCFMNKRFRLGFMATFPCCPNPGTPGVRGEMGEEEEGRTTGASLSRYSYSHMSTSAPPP
Experimental: The compounds of the examples were also tested in a CCKA binding assay as follows:
The pancreatata were removed from male guinea-pigs (200-300 g; Dunkin Hartley) and placed in ice-cold HEPES buffer (pH 7.2@21 ±3° C.). The pancreatata were homogenised in 40 ml ice-cold HEPES buffer using a polytron (Brinkman, PT10, setting 10) 4×1 second. The homogenate was centrifuged at 39,800 g for 15 min at 4° C. The supernatant was discarded and the pellet re-suspended using a Teflon-in-glass homogeniser in 20 volumes of fresh buffer and re-centrifuged as above. The final pellet was re-suspended using a Teflon-in-glass homogeniser to a tissue concentration of 1 mg.ml^-1 (original wet weight), and filtered through 500 μm pore-size Nytex mesh.
The membranes (400 μl; containing 0.375 μM PD134,308) are incubated for 150 minutes at 21±3° C. in a final volume of 0.5 ml with HEPES buffer containing [^125 I]-CCK8 (S) (50 μl; 200 pM) and competing compound. Total and non-specific binding of [^125 I]-CCK^8 (S) are defined using 50 μl of buffer and 50 μl of 100 nM L-364,718respectively. The assay is terminated by rapid filtration through pre-soaked Whatman GF/B filters using a Brandell Cell Harvester. The filters were washed (3×3 ml) with ice-cold 50 mM Tris HCl (pH 7.4 at 4° C. and bound radioactivity is determined by counting (1 min) in a gamma counter.

SMILES | CCKB pKi [1] | Gastrin pKB [2] | CCKA pKi [3] | Ki [1] [nM] | Kb [2] [nM] | Ki [3] [nM]
O=C(O)c1cc(NC(=O)[C@H](Cc2ccccc2)NC(=O)c2ccccc2C(=O)NCc2ccc3ccccc3c2)cc(C(=O)O)c1 [Example 6, (1R-(3,5-dicarboxyphenylaminocarbonyl)-2-phenylethylaminocarbonyl)-2-(2-naphthalenemethylaminocarbonyl)-benzene] | 6.3 | 6.1 | 6.3 |  |  | 
O=C(O)c1cc(NC(=O)[C@H](Cc2ccccc2)NC(=O)c2c[nH]cc2C(=O)NCC23CC4CC(CC(C4)C2)C3)cc(C(=O)O)c1 [Example 13, 3-(1S-(3,5-dicarboxyphenylamino-carbonyl)-2-phenylethylaminocarbonyl)-4-(1-adamantanemethylamino-carbonyl)pyrrole] |  |  |  | 63.1 | 25.1 | 2000
O=C(O)c1cc(NC(=O)[C@H](Cc2ccccc2)NC(=O)c2cc([N+](=O)[O-])ccc2C(=O)NCC23CC4CC(CC(C4)C2)C3)cc(C(=O)O)c1 [Example 15, 1-(1S-(3,5-dicarboxyphenylamino-carbonyl)-2-phenylethylaminocarbonyl)-2-(l-adamantanemethyl-aminocarbonyl)-5-nitrobenzene] |  |  |  | 1000 | 316 | 1000
O=C(O)c1cc(NC(=O)[C@H](Cc2ccccc2)NC(=O)c2cocc2C(=O)NCC23CC4CC(CC(C4)C2)C3)cc(C(=O)O)c1 [Example 12, 3-(1S-(3,5-dicarboxyphenylamino-carbonyl)-2-phenylethylaminocarbonyl)-4-(1-adamantanemethyl-aminocarbonyl)furan] | 6.3 | 6.5 | 5.2 |  |  | 
